From PubChem BioAssay (NCI) come the findings set out here.

Holding throughout (assay): growth of human tumour cells (NCI), 48 h
For assay [1], the system named is LOX IMVI melanoma.
Assay [2] deals with NCI/ADR-RES ovarian.
The test system of assay [3] is HCC-2998 colon.
The test system of assay [4] is UACC-257 melanoma.
Assay [5] deals with HCT-15 colon.
The subject of assay [6] is RXF 393 renal.
In assay [7] the test system is MDA-MB-435.
Assay [8] concerns M14 melanoma.
The subject of assay [9] is SF-268 CNS.
Assay [10] deals with T-47D breast.
Assay [11] relates to SN12C renal.
The test system of assay [12] is COLO 205 colon.
For assay [13], the system named is SW-620 colon.

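Cultured in 96-well plates, cells were exposed to test compound for 48 hours across five concentrations. TGI marks complete inhibition of growth.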

Regarding `C/C=C\C(CC(=O)OC)CC(=O)N(CCC1CN(S(=O)(=O)C(F)(F)F)c2ccccc21)Cc1ccc(OC)cc1OC` (stereo not drawn), the TGI in assay [1], in [2], in [3], in [4], in assay [5] and in assay [6] was above 100 µM each time. The TGI in [7], in assay [8], in assay [9], in assay [10], in assay [11] and in assay [12] was above 100 µM throughout. Further, in assay [13], the TGI was above 100 µM.
With `O=C1/C(=C/c2ccc(O)c(O)c2)CC/C1=C\c1ccc(O)c(O)c1`, the TGI was above 56.1 µM in assay [1]; above 100 µM in [2]; above 100 µM in assay [3]; above 100 µM in assay [4]; above 100 µM in assay [5]; 19.3 µM in assay [6]. In addition, the TGI is above 100 µM in [7]; 9.56 µM in assay [8]; 26.7 µM in [9]; 63.3 µM in [10]; above 79.5 µM in assay [11]; above 86.8 µM in assay [12]. The compound further displayed a TGI in assay [13] above 100 µM.
As to `CCCCCCCCCCOCCOCCOCCOCCCCC(O)CCCCCCCC1=C[C@H](C)OC1=O` (stereo partly drawn), the TGI in [1] came out at 28 µM; in [2] it was 41 µM; in assay [3], 27 µM; in assay [4], 19.8 µM; in assay [5] it was 23.9 µM; in [6], 23.5 µM. The TGI in [7] came to 28.2 µM; in [8], 35.7 µM; in assay [9] it was 22.9 µM; in assay [10], 75 µM; in assay [11], 29.9 µM; in [12], 34.5 µM. The compound also displayed a TGI in assay [13] of 29.5 µM.
As for `COC(=O)/N=[N+](\[O-])C(c1ccccc1)c1ccccc1`, the TGI in assay [1], in assay [2], in [3], in [4], in assay [5] and in [6] was above 100 µM in each case. The TGI in assay [7], in [8], in assay [9], in assay [10], in assay [11] and in [12] was above 100 µM in each case. For the same compound, the TGI in assay [13] was above 100 µM.
In the case of `CCOC(=O)C1(N)CC1`, the TGI in assay [1], in [2], in [3], in [4], in [5] and in assay [6] was above 100 µM in each case. The TGI in [7], in [8], in assay [9], in assay [10], in assay [11] and in [13] was above 100 µM each time.
With `O=C1CC2CC(CC3(CO3)C2)C1F` (stereo not drawn), the TGI in assay [1], in [2], in [3], in assay [4], in [5] and in assay [6] was above 100 µM each time. Also, the TGI in assay [7], in [8], in [9], in [10], in assay [11] and in assay [12] was above 100 µM in each case.
Turning to `C(#CC1(Nc2ccccc2)CCN(Cc2ccccc2)CC1)C1(Nc2ccccc2)CCN(Cc2ccccc2)CC1`, the TGI was 38.7 µM in assay [1]; above 100 µM in assay [2]; above 100 µM in assay [3]; above 46.4 µM in [5]; 25.7 µM in assay [6]; above 100 µM in [7]. Moreover, the TGI in [8] was above 100 µM; in [9], 47.8 µM; in assay [10], above 100 µM; in [11] it was above 56.2 µM; in assay [12] it was 3.5 µM; in assay [13], above 56.2 µM.
Regarding `COc1cc(CNc2c3ccccc3nc3ccccc23)cc(OC)c1OC`, the TGI in assay [1] worked out at 6.75 µM; in [2], 14.2 µM; in [3] it was 11.9 µM; in [4], 11.2 µM; in assay [5], 14 µM; in [6] it was 9.04 µM. The TGI in assay [7] is 12.9 µM; in [8], 8.76 µM; in [9], 16.5 µM; in [10] it was 41.9 µM; in assay [11] it was 15.3 µM; in assay [12], 7.14 µM. The compound further yielded a TGI in [13] of 10.1 µM.
Take `O=C(NCCCN(CCCCN(CCCNC(=O)c1cc(S(=O)(=O)O)cc(O)c1O)C(=O)c1cc(S(=O)(=O)O)cc(O)c1O)C(=O)c1cc(S(=O)(=O)O)cc(O)c1O)c1cc(S(=O)(=O)O)cc(O)c1O`: the TGI in assay [1], in assay [2], in [3], in assay [4], in [5] and in assay [7] was above 100 µM each time. Besides, the TGI in assay [9], in assay [10], in [11], in [12] and in assay [13] was above 100 µM throughout.
Regarding `CN1CCN(Cc2nc3c(s2)CCc2sccc2-3)CC1`, the TGI in assay [2], in [3], in assay [4], in assay [5], in assay [6] and in assay [7] was above 100 µM throughout. Besides, the TGI in assay [8], in assay [9], in assay [10], in [11], in [12] and in [13] was above 100 µM each time.
`OCC1CCCC1O` (stereo not drawn): the TGI in assay [2], in assay [3], in [4], in assay [5], in assay [6] and in assay [7] was above 100 µM each time. The TGI in assay [8], in assay [9], in assay [10], in assay [11], in assay [12] and in assay [13] was above 100 µM each time.
With `CC(=O)Oc1ccc2cc(-c3ccc(OC(C)=O)c(OC(C)=O)c3)c(=O)oc2c1`, the TGI in assay [1], in assay [2], in assay [3], in assay [4], in [5] and in assay [7] was above 100 µM in each case. Moreover, the TGI is above 100 µM in assay [8]; above 100 µM in assay [9]; 62.1 µM in assay [10]; above 100 µM in assay [11]; above 100 µM in [12]; above 100 µM in assay [13].
`Cc1ccc(C(=O)N/N=C(\N=Nc2ccccc2Cl)c2ccc(N(C)C)cc2)cc1`: the TGI was above 100 µM in [1]; above 100 µM in assay [2]; above 100 µM in [3]; above 100 µM in assay [4]; above 100 µM in assay [5]; 29.6 µM in assay [7]. The TGI in assay [8] was above 100 µM; in assay [9] it was above 100 µM; in [10], 24.5 µM; in assay [11], above 100 µM; in assay [12], above 100 µM; in assay [13], above 100 µM.
Turning to `O=C1[C@@H](O)[C@@H]2CCCC[C@@]23CCCN13`, the TGI in assay [1], in [2], in assay [3], in assay [4], in [5] and in assay [6] was above 100 µM in each case. For the same compound, the TGI in assay [7], in assay [8], in assay [9], in [10], in [11] and in assay [12] was above 100 µM in each case.
Regarding `O=S(=O)(CCC[C@H]1[C@@H](CCOCc2ccccc2)C2CCCN1O2)c1ccccc1` (stereo partly drawn), the TGI in assay [2], in [3], in assay [4], in [5], in assay [6] and in assay [7] was above 100 µM throughout. Further, the TGI in assay [8], in assay [9], in [10], in assay [11], in [12] and in assay [13] was above 100 µM throughout.
As to `CN(C)CC1CCC/C(=C\c2ccccc2)C1=O` (stereo not drawn), the TGI in assay [1] turned out to be 3.2 µM; in assay [2], 41.6 µM; in assay [3], 29 µM; in [4] it was 7.45 µM; in [5], 4.67 µM; in assay [6] it was 7.38 µM. Besides, the TGI was 3.54 µM in assay [7]; 7.44 µM in assay [9]; 4.35 µM in assay [10]; 18.5 µM in [11]; 5.27 µM in assay [12]; 3.07 µM in assay [13].
Take `O=c1[nH]nc(Cc2ccccc2)n1/N=C/c1ccc([N+](=O)[O-])cc1`: the TGI in assay [1], in assay [2], in assay [3], in assay [4], in [5] and in assay [6] was above 100 µM each time. Further, the TGI in assay [7], in [9], in [10], in assay [11], in assay [12] and in assay [13] was above 100 µM each time.
Take `CCOc1cccc(-c2cc(=O)c3cc4c(cc3[nH]2)OCO4)c1`: the TGI is above 100 µM in assay [1]; 0.294 µM in [2]; 0.695 µM in assay [3]; above 100 µM in assay [4]; 0.52 µM in assay [5]; 1.82 µM in [6]. In addition, the TGI in [7] is 0.0528 µM; in assay [8], above 37.6 µM; in assay [9], above 82.1 µM; in assay [10] it was above 100 µM; in assay [11] it was 5.38 µM; in assay [13], above 100 µM.
Turning to `COc1ccc(-c2nc3c(C(=O)NCCN(C)C)cccc3c3ccccc23)cc1`, the TGI in assay [1] stood at 2.94 µM; in assay [2] it was 45.4 µM; in assay [3] it was 3.85 µM; in [4], 3.56 µM; in assay [5], 9.46 µM; in assay [7], 5.16 µM. In addition, the TGI in [8] came to 3.93 µM; in assay [9], 24.5 µM; in assay [10], 29.7 µM; in assay [11], 16.9 µM; in assay [12], 4.51 µM; in assay [13] it was 14.5 µM.
`CCOC(=O)c1sc2nc1CSc1sc(=S)sc1SCc1nc(sc1C(=O)OCC)-c1nc(c(C(=O)OCC)s1)CSc1sc(=S)sc1SCc1nc-2sc1C(=O)OCC`: the TGI in [1], in assay [2], in [3], in [4], in [5] and in [6] was above 10 µM in each case. Moreover, the TGI in [7], in assay [9], in assay [10], in [11], in [12] and in assay [13] was above 10 µM in each case.
For `COC(=O)Cn1c(=O)oc2nc(-c3ccccc3)cc(C(F)(F)F)c21`, the TGI in [2], in assay [3], in assay [4], in [5], in [6] and in assay [7] was above 100 µM throughout. Also, the TGI in assay [8], in assay [9], in assay [10], in assay [11], in assay [12] and in assay [13] was above 100 µM throughout.
Regarding `O=[N+]([O-])C(/C=C(\Cl)[N+](=O)[O-])=C(N1CCCCC1)N1CCCCC1`, the TGI in assay [1] was above 100 µM; in assay [2] it was above 100 µM; in [3] it was above 100 µM; in assay [4] it was 69.2 µM; in [5], 68 µM; in [6], above 100 µM. Moreover, the TGI in assay [7] was 30.6 µM; in [8] it was 57 µM; in assay [9], above 100 µM; in assay [10], above 100 µM; in [11] it was above 100 µM; in assay [12], 55.5 µM.
